{
  "source": "patent US3979515A",
  "about": "“Novel dibenzo(b,f)azepines as thymoanaleptics” (Roussel-UCLAF, priority 1969, dated 1976)",
  "key": {"[1]": {"assay": "solubility in water (product description)", "format": "physicochemical", "conditions": "qualitative"}, "[2]": {"assay": "acute toxicity determination", "conditions": "mouse, in vivo, ip; Rockland mice 18-22 g, intraperitoneal, observed for 7 days; read-out: LD50 (50% of animals died)"}, "[3]": {"tested_on": "eyelid ptosis caused by reserpine", "assay": "eyelid ptosis test (antagonism of reserpine, anti-depressant activity)", "format": "in vivo, rats", "conditions": "1 h before reserpine 1 mg/kg i.p., read 4 h after reserpine, percent of controls receiving reserpine only", "description": "The anti-depressant activity was determined by the eyelid ptosis test codified by Rubin, J. Pharm. Exp. Ther. Vol. 120 (1957), p. 125. […] The eyelid ptosis test is used as a quantitative evaluation of the animal's condition but the antagonism is equally exerted on all the neuro-depressive symptoms of reserpine: immobility, […], hypothermia,myosis, etc. […] The results of Table I are expressed as percent of ptosis compared to the controls receiving reserpine only."}},
  "data": [
    {"smiles": "CN(C)CCC1=Cc2ccccc2N(C)c2cc(Cl)ccc21", "note": "[7-chloro-5-methyl-10-(β-dimethylaminoethyl)-dibenzo (b,f) azepine]", "values": [
      {"measurement": "solubility in water", "setting": "[1]", "value": "insoluble in water"}
    ]},
    {"smiles": "CN(C)CCC1=Cc2ccccc2N(C)c2ccc(Cl)cc21", "note": "[8-chloro-5-methyl-10-(β-dimethylaminoethyl)-dibenzo(b,f)azepine]", "values": [
      {"measurement": "solubility in water", "setting": "[1]", "value": "insoluble in water"}
    ]},
    {"smiles": "CNCCC1=Cc2ccccc2N(C)c2cc(Cl)ccc21", "note": "[fumarate of 7-chloro-5-methyl-10-(β-monomethylaminoethyl)-dibenzo (b,f) azepine]", "values": [
      {"measurement": "solubility in water", "setting": "[1]", "value": "slightly soluble in water"}
    ]},
    {"smiles": "CN(C)CCC1=Cc2ccccc2N(C)c2ccccc21", "note": "[5-methyl-10-(β-dimethylaminoethyl)-dibenzo (b,f) azepine]", "values": [
      {"measurement": "LD50 at 168 h", "setting": "[2]", "value": "~50", "unit": "mg/kg"},
      {"measurement": "solubility in water", "setting": "[1]", "value": "insoluble in water"},
      {"measurement": "% of ptosis", "setting": "[3]; 2 mg/kg i.p.", "value": 100, "unit": "%"},
      {"measurement": "% of ptosis", "setting": "[3]; 5 mg/kg i.p.", "value": 59, "unit": "%"},
      {"measurement": "% of ptosis", "setting": "[3]; 10 mg/kg i.p.", "value": 37, "unit": "%"},
      {"measurement": "% of ptosis", "setting": "[3]; 20 mg/kg i.p.", "value": 30, "unit": "%"}
    ]},
    {"smiles": "CNCCC1=Cc2ccccc2N(C)c2ccccc21.Cl", "note": "[5-methyl-10(β-monomethylaminoethyl)-dibenzo (b,f) azepine hydrochloride]", "values": [
      {"measurement": "LD50 at 168 h", "setting": "[2]", "value": "~75", "unit": "mg/kg"},
      {"measurement": "solubility in water", "setting": "[1]", "value": "insoluble in ether and water"},
      {"measurement": "% of ptosis", "setting": "[3]; 1 mg/kg i.p.", "value": 100, "unit": "%"},
      {"measurement": "% of ptosis", "setting": "[3]; 2 mg/kg i.p.", "value": 72, "unit": "%"},
      {"measurement": "% of ptosis", "setting": "[3]; 5 mg/kg i.p.", "value": 50, "unit": "%"},
      {"measurement": "% of ptosis", "setting": "[3]; 10 mg/kg i.p.", "value": 33, "unit": "%"},
      {"measurement": "% of ptosis", "setting": "[3]; 20 mg/kg i.p.", "value": 11, "unit": "%"}
    ]}
  ]
}
